From patent publication US20120041058A1, “COMPOSITION OF TRADITIONAL CHINESE MEDICINE FOR REDUCING BLOOD FAT AND PREPARATION METHOD THEREOF” (ANJI GREEN LIFE BIOTECH CO., LTD., priority 2009, published 2012)

System: acute high-lipid mouse model
Test: Acute high-lipid mouse model resulted from egg yolk emulsion injection: serum cholesterol and triglycerides
Assay type: in vivo, ICR mice
Conditions: for T-cho / Trig: ICR mice, oral 1 time/d for 14 d, blood 20 h after ip 75% egg yolk emulsion; for T-cho / Trig / Reduction rate of cholesterol / Reduction rate of triglyceride: dose 2 mg/mouse; for blood-lipid-lowering effect on the mouse model of high blood lipid caused by the egg yolk emulsion: after two weeks of oral administration, result in words; for Reduction rate of cholesterol / Reduction rate of triglyceride: vs model mouse group, 14 d
Procedure: The Treatment Efficiency of Blood-Lipid-Lowering Traditional Chinese Medicine Compositions Having Different Component Proportions on the Acute High-Lipid Mouse Models Resulted from Egg Yolk Emulsion Injection Male ICR mice of 20 g˜22 g are divided into several groups after 5 d adaptive feeding: control group, fed with normal saline; model group, fed with normal saline; positive control group, fed with Xuezhikang of 1000 mg/kg.

SMILES: C[C@H]1[C@H](OC(=O)CCC(=O)O)O[C@@H]2O[C@@]3(C)CC[C@H]4[C@H](C)CC[C@@H]1[C@@]24OO3 [Artesunate, artesunate]
- T-cho: 8.32 ± 1.09 mmol/L
- Trig: 10.72 ± 2.68 mmol/L
- blood-lipid-lowering effect on the mouse model of high blood lipid caused by the egg yolk emulsion: neither ursolic acid nor artesunate had the blood-lipid-lowering effect
- Reduction rate of cholesterol: −2.21%
- Reduction rate of triglyceride: −4.89%

SMILES: C[C@H]1[C@H](C)CC[C@]2(C(=O)O)CC[C@]3(C)C(=CC[C@@H]4[C@@]5(C)CC[C@H](O)C(C)(C)[C@@H]5CC[C@]43C)[C@H]12 [Ursolic acid, ursolic acid]
- T-cho: 9.11 ± 1.49 mmol/L
- Trig: 13.37 ± 3.63 mmol/L
- blood-lipid-lowering effect on the mouse model of high blood lipid caused by the egg yolk emulsion: neither ursolic acid nor artesunate had the blood-lipid-lowering effect
- Reduction rate of cholesterol: −11.92%
- Reduction rate of triglyceride: −30.82%

SMILES: C[C@@H]1CC[C@H]2[C@@H](C)C(=O)O[C@@H]3O[C@@]4(C)CC[C@@H]1[C@]32OO4 [Artemisinin, artemisinin]
- T-cho: 6.10 ± 3.20 mmol/L
- Trig: 8.90 ± 4.00 mmol/L
- Reduction rate of cholesterol: 25.1%
- Reduction rate of triglyceride: 12.9%
